Results on one substance are retold here after patent US12729381B2, “Methods and compositions for inactivating interleukin-2-inducible t-cell kinase (ITK)” (priority 2020, dated 2026).

For this assay, the system named is SLP76: ITK signaling. The assay can be described thus: Western blot of signaling proteins in mouse T cells stimulated with anti-CD3 and anti-CD28. The format is cell-based. Here is the method:
Western blotting: For protein analysis, T cells were either nonstimulated, or stimulated with anti-CD3 and anti-CD28 for 24 hours overnight, and were lysed with freshly prepared lysis buffer (RIPA Buffer (Fisher Scientific cat #PI89900)+cOmplete Protease Inhibitor Cocktail (Sigma-Aldrich; cat #11697498001)) and centrifuged for 10 minutes at 14000 rpm at 4° C. Protein aliquots of 70 μg of protein were loaded on a 12-18% denaturing polyacrylamide gel and transferred to nitrocellulose membranes for immunoblot analysis using antibodies specific to proteins of interest.
To ensure that the peptide easily enters cells and that its cellular localization can be monitored, a C-terminal TAT peptide (GRKKRRQRRRPQ) (SEQ ID NO:3) and an N-terminal fluorescent FITC dye were incorporated, respectively, and named it SLP76pTYR peptide ([…]). SLP76pTYR peptide (FITC Dye ^132NEEEEAPVEDDADpYEPPPSNDEEA^155-TAT) (SEQ ID NO:5) and non-specific control peptide (FITC Dye-[…]-TAT) (SEQ ID NO:6) were synthesized by Genscript Inc (Piscataway, NJ). These peptides were initially dissolved in 3% ammonia water to a final concentration of 10 mg/mL and then further diluted into PBS to a final concentration of 0.1 mg/mL. Fresh splenocytes were isolated from WT mice, and T cells were generated from splenocytes as previously described (Baker et al., 2001). Briefly, T cells were isolated from splenocytes using MACS beads (Miltenyi Biotec), then cultured in complete RPMI media (3×10^6 cells/mL) and plated on anti-CD3 ([…]; Biolegend; cat #100202) and anti-CD28 ([…]; Biolegend; cat #102116) antibody-coated tissue culture plates until otherwise specified. T cells were incubated with SLP76pTYR, control peptide or vehicle alone at different concentrations ranging from 100 ng/ml to 1 mg/ml in the presence of 4 mg/ml of protamine sulfate. […] Within 60 minutes, it was observed that peptides were inside the cells. Cells were cultured for 5 minutes prior to investigating signaling changes. Cells were examined for the presence of FITC by microscopy using a Leica DMi8 microscope equipped with an infinity total internal reflection fluorescence (TIRF) and DIC modules, a Lumencor SOLA SE II light box, a 150 mW 488 (GFP) laser and filter cube, a 100x/1.47 NA objective, and an Andor iXon Life 897 EMCCD camera. FITC expression was confirmed by flow cytometry as well. Cells were lysed and used in Western blots.
ITK deficiency is known to enhance the development of regulatory T cells (Tregs) (Elmore et al., 2020, Owen et al., 2019) so the peptide inhibitor was tested to determine whether inhibition of the ITK: SLP76Y145 interactions using SLP76pTYR would induce Tregs. First, the frequency of Tregs was examined by expression of CD4^+ and FoxP3^+ (FIG. 18A). Next, total mouse T cells were stimulated with anti-CD3 (Sugie et al., 2004) in the presence of either SLP76pTYR, nonspecific peptide, or vehicle alone for 5 to 24 hours, and cells were harvested and examined for the presence of Tregs (CD4^+CD25^+FoxP3^+). […] Next, the effects of SLP76pTYR peptide on human PBMC samples from healthy human patients was investigated. T cells from these patients were stimulated with anti-CD3 (OKT3) (Karimi et al., 2005) for 5 minutes in the presence of SLP76pTYR or vehicle alone. […] No differences in stimulated or unstimulated total human AKT (FIG. 18E and FIG. 28H) was observed, providing a showing that the SLP76pTYR peptide has an impact on signaling pathways downstream of SLP76 in both mouse and human T cells. […] Next, the ability of SLP76pTYR peptide to affect the production of proinflammatory cytokines in human PBMCs was investigated. T cells from healthy human were stimulated with anti-CD3 (OKT3) and anti-CD28 in the presence of SLP76pTYR or vehicle alone, along with Brefeldin A. T cells incubated with SLP76pTYR or vehicle alone were also examined in the presence of PMA+lonomycin and Brefeldin A for 6 hours. […]
Background: Immunoblotting shows a protein as a band on a membrane.

Setting [1] is: anti-CD3 and anti-CD28 for 5 minutes, vs vehicle alone.

Non-standard residues stand in square brackets, D forms with d. No end group written: not given here. *: point of attachment. FITC = O=C1OC2(c3ccc(O)cc3Oc3cc(O)ccc32)c2ccc(NC(=S)*)cc21; pY = N[C@@H](Cc1ccc(OP(=O)(O)O)cc1)C(=O)O

In the case of “FITC Dye ^132NEEEEAPVEDDADpYEPPPSNDEEA^155-TAT ({FITC}-NEEEEAPVEDDAD[pY]EPPPSNDEEAGRKKRRQRRRPQ) [SLP76pTYR]”, the “off-target effects against other kinases” value (PI3K and AKT, mouse and human T cells (FIG. 28A-H)) was “minimal off-target effects against other kinases, including PI3K and AKT”. Moreover, under setting [1], the “ITK phosphorylation, stimulated” value is on record as “reduction in ITK phosphorylation” and the “PLCγ-1 phosphorylation, stimulated” value is “a reduction in stimulated phosphorylation PLCγ-1 was observed”. Further, the “ITK phosphorylation, non-stimulated” value (non-stimulated cells, vs vehicle alone) was “A reduction in non-stimulated phosphorylation ITK was not observed”. Moreover, for the setting “stimulated and non-stimulated, also total AKT”, the “phosphorylation of AKT” value is given as “No differences in the phosphorylation of PI3K or AKT was observed”. Further, where the note is “stimulated and non-stimulated, also total PI3K”, the “phosphorylation of PI3K” value is reported as “No differences in the phosphorylation of PI3K or AKT was observed”. Where the note is “vs vehicle alone”, the “non-stimulated phospho-PLCγ-1 and stimulated or non-stimulated PLCγ-1” value is reported as “no reduction with non-stimulated phospho-PLCγ-1or either stimulated or non-stimulated PLCγ-1 was observed”; the “total ITK, stimulated or non-stimulated” value is “nor was any reduction for non-stimulated total ITK or stimulated total ITK observed”.
